{"source": "paper PMC9669179", "about": "(Epilepsia, 2022)", "key": {"[1]": {"test_system": "adult Sprague-Dawley rats", "conditions": "rat, MES, i.p.; cited from earlier work"}, "[2]": {"conditions": "rat, in vivo"}, "in vivo [3]": {"experiment": "in vivo", "conditions": "Sprague Dawley, rat, ip"}, "[4]": {"conditions": "CF-1, mouse, in vivo"}, "[5]": {"conditions": "CF-1, mouse, in vivo", "remark": "listed apart in the source"}, "adult CF-1 mice [6]": {"test_system": "adult CF-1 mice", "experiment": "Maximal electroshock", "type": "in vivo, mouse", "conditions": "MES"}, "adult CF-1 mice [7]": {"test_system": "adult CF-1 mice", "conditions": "mouse, MES, i.p.; cited from earlier work"}, "in vivo [8]": {"experiment": "in vivo", "conditions": "Sprague Dawley, rat, ip", "remark": "listed apart in the source"}, "[9]": {"conditions": "Sprague Dawley, rat, in vivo"}, "rats": {"test_system": "rats", "conditions": "rat, cited from earlier work"}, "in vivo [10]": {"experiment": "in vivo", "conditions": "CF-1, mouse, ip"}, "mice": {"test_system": "mice", "conditions": "mouse, cited from earlier work"}, "in vivo [11]": {"experiment": "in vivo", "conditions": "CF-1, mouse, ip", "remark": "listed apart in the source"}, "[12]": {"test_system": "adult Sprague-Dawley rats", "experiment": "Maximal electroshock", "type": "in vivo, rat", "conditions": "MES; for Efficacy in rats (number seizure protected /number tested): low dose i.p. (CLB 17, CBZ 3, VPA 165 mg/kg)"}, "[13]": {"experiment": "Plasma pharmacokinetics in mice", "conditions": "CF-1, mouse, in vivo, ip"}, "adult male CF-1 mice [14]": {"test_system": "adult male CF-1 mice", "conditions": "mouse, 6 Hz 44 mA, i.p.; cited from earlier work"}, "adult male CF-1 mice [15]": {"test_system": "adult male CF-1 mice", "experiment": "6 Hz 44 mA seizure test in mice", "type": "in vivo, mouse"}, "[16]": {"experiment": "Brain pharmacokinetics in rats", "conditions": "rat"}, "[17]": {"experiment": "Brain pharmacokinetics in mice"}, "[18]": {"experiment": "Plasma pharmacokinetics in rats", "conditions": "Sprague Dawley, rat, in vivo, ip"}, "[19]": {"conditions": "low dose i.p.: CLB 17, CBZ 3, VPA 165, LEV 14 mg/kg"}, "[20]": {"conditions": "mouse, low dose i.p.: CLB 7, CBZ 7, VPA 260, LEV 20 mg/kg"}}, "note": "Where two headings read alike, the source gives them in different places.", "data": [{"smiles": "NC(=O)N1c2ccccc2C=Cc2ccccc21", "note": "[CBZ, carbamazepine]", "values": [{"measurement": "ED50 - low dose", "setting": "[1]", "result": 3, "unit": "mg/kg"}, {"measurement": "Plasma Dose Prop (AUC)", "setting": "[2]; Sprague Dawley", "result": 2.29}, {"measurement": "Plasma Dose Prop (Cmax)", "setting": "[2]; Sprague Dawley", "result": 1.138}, {"measurement": "Plasma t1/2", "setting": "[2]; Sprague Dawley, ip", "result": 70.8, "unit": "min"}, {"measurement": "High-dose concentrations relative to expected from low-dose", "setting": "[2]", "result": "approximately two-fold"}, {"measurement": "Tmax", "setting": "in vivo [3]", "result": 15, "unit": "min"}, {"measurement": "half-life", "setting": "in vivo [3]; Plasma t1/2", "result": 49.2, "unit": "min"}, {"measurement": "High-dose exposures greater than expected from low-dose", "setting": "[4]", "result": "50 - 60%"}, {"measurement": "Plasma Dose Prop (AUC)", "setting": "[4]", "result": 1.49}, {"measurement": "Plasma Dose Prop (Cmax)", "setting": "[4]", "result": 0.917}, {"measurement": "Plasma t1/2", "setting": "[4]; ip", "result": 66.6, "unit": "min"}, {"measurement": "Brain Dose Prop (AUC)", "setting": "[5]", "result": 1.64}, {"measurement": "Brain t1/2", "setting": "[5]; ip", "result": 59.4, "unit": "min"}, {"measurement": "Efficacy in mice (number seizure protected/number tested)", "setting": "adult CF-1 mice [6]; high dose i.p. (CBZ 40 mg/kg), time test 0.25 h", "result": "4/4"}, {"measurement": "Efficacy in mice (number seizure protected/number tested)", "setting": "adult CF-1 mice [6]; high dose i.p. (CBZ 40 mg/kg), time test 0.5 h", "result": "4/4"}, {"measurement": "Efficacy in mice (number seizure protected/number tested)", "setting": "adult CF-1 mice [6]; high dose i.p. (CBZ 40 mg/kg), time test 1 h", "result": "4/4"}, {"measurement": "Efficacy in mice (number seizure protected/number tested)", "setting": "adult CF-1 mice [6]; high dose i.p. (CBZ 40 mg/kg), time test 2 h", "result": "4/4"}, {"measurement": "Efficacy in mice (number seizure protected/number tested)", "setting": "adult CF-1 mice [6]; high dose i.p. (CBZ 40 mg/kg), time test 4 h", "result": "4/4"}, {"measurement": "Efficacy in mice (number seizure protected/number tested)", "setting": "adult CF-1 mice [6]; high dose i.p. (CBZ 40 mg/kg), time test 8 h", "result": "0/4"}, {"measurement": "Efficacy in mice (number seizure protected/number tested)", "setting": "adult CF-1 mice [6]; low dose i.p. (CBZ 7 mg/kg), time test 0.25 h", "result": "3/4"}, {"measurement": "Efficacy in mice (number seizure protected/number tested)", "setting": "adult CF-1 mice [6]; low dose i.p. (CBZ 7 mg/kg), time test 0.5 h", "result": "3/4"}, {"measurement": "Efficacy in mice (number seizure protected/number tested)", "setting": "adult CF-1 mice [6]; low dose i.p. (CBZ 7 mg/kg), time test 1 h", "result": "2/4"}, {"measurement": "Efficacy in mice (number seizure protected/number tested)", "setting": "adult CF-1 mice [6]; low dose i.p. (CBZ 7 mg/kg), time test 2 h", "result": "0/4"}, {"measurement": "Efficacy in mice (number seizure protected/number tested)", "setting": "adult CF-1 mice [6]; low dose i.p. (CBZ 7 mg/kg), time test 4 h", "result": "0/4"}, {"measurement": "Efficacy in mice (number seizure protected/number tested)", "setting": "adult CF-1 mice [6]; low dose i.p. (CBZ 7 mg/kg), time test 8 h", "result": "0/4"}, {"measurement": "Seizure protection (in words)", "setting": "adult CF-1 mice [6]; mice, high dose CBZ 40 mg/kg i.p.", "result": "complete protection"}, {"measurement": "ED50 - low dose", "setting": "adult CF-1 mice [7]", "result": 7, "unit": "mg/kg"}, {"measurement": "Tmax", "setting": "in vivo [8]", "result": 15, "unit": "min"}, {"measurement": "half-life", "setting": "in vivo [8]; Brain t1/2", "result": 46.2, "unit": "min"}, {"measurement": "Brain Dose Prop (AUC)", "setting": "[9]", "result": 1.89}, {"measurement": "Brain t1/2", "setting": "[9]; ip", "result": 72, "unit": "min"}, {"measurement": "TD50 - high dose", "setting": "rats; in vivo, ip", "result": 24, "unit": "mg/kg"}, {"measurement": "Tmax", "setting": "in vivo [10]", "result": 15, "unit": "min"}, {"measurement": "half-life", "setting": "in vivo [10]; Plasma t1/2", "result": 78, "unit": "min"}, {"measurement": "TD50 - high dose", "setting": "mice; in vivo, ip", "result": 40, "unit": "mg/kg"}, {"measurement": "Tmax", "setting": "in vivo [11]", "result": 15, "unit": "min"}, {"measurement": "half-life", "setting": "in vivo [11]; Brain t1/2", "result": 31.2, "unit": "min"}, {"measurement": "Efficacy in rats (number seizure protected /number tested)", "setting": "[12]; time test 0.25 h", "result": "1/4"}, {"measurement": "Efficacy in rats (number seizure protected /number tested)", "setting": "[12]; time test 0.5 h", "result": "1/4"}, {"measurement": "Efficacy in rats (number seizure protected /number tested)", "setting": "[12]; time test 1 h", "result": "0/4"}, {"measurement": "Efficacy in rats (number seizure protected /number tested)", "setting": "[12]; time test 2 h", "result": "0/4"}, {"measurement": "Efficacy in rats (number seizure protected /number tested)", "setting": "[12]; time test 4 h", "result": "0/4"}, {"measurement": "Efficacy in rats (number seizure protected /number tested)", "setting": "[12]; time test 8 h", "result": "0/4"}, {"measurement": "Period for which 100% seizure protection was sustained", "setting": "[12]; rats, high-dose CBZ i.p.", "result": "~ 2 hrs"}, {"measurement": "Seizure protection", "setting": "[12]; rats, high-dose CBZ i.p.", "result": 100, "unit": "%"}, {"measurement": "Seizure protection (% protected)", "setting": "[12]; rats, low-dose CBZ i.p., within the first hour", "result": 25, "unit": "%"}]}, {"smiles": "CN1C(=O)CC(=O)N(c2ccccc2)c2cc(Cl)ccc21", "note": "[CLB, Clobazam]", "values": [{"measurement": "ED50 - low dose", "setting": "[1]", "result": 17, "unit": "mg/kg"}, {"measurement": "Tmax", "setting": "[13]", "result": 15, "unit": "min"}, {"measurement": "ED50 - low dose", "setting": "adult male CF-1 mice [14]", "result": 7, "unit": "mg/kg"}, {"measurement": "TD50 - high dose", "setting": "rats; minimum motor impairment test, i.p.", "result": 37, "unit": "mg/kg"}, {"measurement": "Efficacy in mice (number seizure protected/number tested)", "setting": "adult male CF-1 mice [15]; high dose i.p. (CLB 17, VPA 570, LEV 500 mg/kg), time test 0.25 h", "result": "4/4"}, {"measurement": "Efficacy in mice (number seizure protected/number tested)", "setting": "adult male CF-1 mice [15]; high dose i.p. (CLB 17, VPA 570, LEV 500 mg/kg), time test 0.5 h", "result": "4/4"}, {"measurement": "Efficacy in mice (number seizure protected/number tested)", "setting": "adult male CF-1 mice [15]; high dose i.p. (CLB 17, VPA 570, LEV 500 mg/kg), time test 1 h", "result": "3/4"}, {"measurement": "Efficacy in mice (number seizure protected/number tested)", "setting": "adult male CF-1 mice [15]; high dose i.p. (CLB 17, VPA 570, LEV 500 mg/kg), time test 2 h", "result": "3/4"}, {"measurement": "Efficacy in mice (number seizure protected/number tested)", "setting": "adult male CF-1 mice [15]; high dose i.p. (CLB 17, VPA 570, LEV 500 mg/kg), time test 4 h", "result": "1/4"}, {"measurement": "Efficacy in mice (number seizure protected/number tested)", "setting": "adult male CF-1 mice [15]; high dose i.p. (CLB 17, VPA 570, LEV 500 mg/kg), time test 8 h", "result": "0/4"}, {"measurement": "Efficacy in mice (number seizure protected/number tested)", "setting": "adult male CF-1 mice [15]; low dose i.p. (CLB 7, VPA 260, LEV 20 mg/kg), time test 0.25 h", "result": "2/4"}, {"measurement": "Efficacy in mice (number seizure protected/number tested)", "setting": "adult male CF-1 mice [15]; low dose i.p. (CLB 7, VPA 260, LEV 20 mg/kg), time test 0.5 h", "result": "1/4"}, {"measurement": "Efficacy in mice (number seizure protected/number tested)", "setting": "adult male CF-1 mice [15]; low dose i.p. (CLB 7, VPA 260, LEV 20 mg/kg), time test 1 h", "result": "3/4"}, {"measurement": "Efficacy in mice (number seizure protected/number tested)", "setting": "adult male CF-1 mice [15]; low dose i.p. (CLB 7, VPA 260, LEV 20 mg/kg), time test 2 h", "result": "0/4"}, {"measurement": "Efficacy in mice (number seizure protected/number tested)", "setting": "adult male CF-1 mice [15]; low dose i.p. (CLB 7, VPA 260, LEV 20 mg/kg), time test 4 h", "result": "0/4"}, {"measurement": "Efficacy in mice (number seizure protected/number tested)", "setting": "adult male CF-1 mice [15]; low dose i.p. (CLB 7, VPA 260, LEV 20 mg/kg), time test 8 h", "result": "0/4"}, {"measurement": "Tmax", "setting": "[16]; Sprague Dawley, in vivo, ip", "result": 15, "unit": "min"}, {"measurement": "Brain AUC (0-8 hr)", "setting": "[16]; [19]", "result": 2.88, "unit": "ng·h/mg"}, {"measurement": "Brain Cmax", "setting": "[16]; [19]", "result": 2.90, "unit": "ng/mg"}, {"measurement": "Brain Cmin", "setting": "[16]; [19]", "result": 0.027, "unit": "ng/mg"}, {"measurement": "TD50 - high dose", "setting": "mice; rotarod test, i.p.", "result": 17, "unit": "mg/kg"}, {"measurement": "Efficacy in rats (number seizure protected /number tested)", "setting": "[12]; time test 0.25 h", "result": "0/4"}, {"measurement": "Efficacy in rats (number seizure protected /number tested)", "setting": "[12]; time test 0.5 h", "result": "0/4"}, {"measurement": "Efficacy in rats (number seizure protected /number tested)", "setting": "[12]; time test 1 h", "result": "0/4"}, {"measurement": "Efficacy in rats (number seizure protected /number tested)", "setting": "[12]; time test 2 h", "result": "0/4"}, {"measurement": "Efficacy in rats (number seizure protected /number tested)", "setting": "[12]; time test 4 h", "result": "0/4"}, {"measurement": "Efficacy in rats (number seizure protected /number tested)", "setting": "[12]; time test 8 h", "result": "0/4"}, {"measurement": "Seizure protection (in words)", "setting": "[12]; rats, high dose i.p. (CLB 37, VPA 315 mg/kg)", "result": "seizure protection was observed within the first hour"}, {"measurement": "Seizure protection (in words)", "setting": "[12]; rats, low dose i.p. (CLB 17, VPA 165 mg/kg)", "result": "did not protect"}, {"measurement": "Tmax", "setting": "[17]; CF-1, mouse, in vivo, ip", "result": 15, "unit": "min"}, {"measurement": "Brain AUC (0-8 hr)", "setting": "[17]; [20]", "result": 1.74, "unit": "ng·h/mg"}, {"measurement": "Brain Cmax", "setting": "[17]; [20]", "result": 2.26, "unit": "ng/mg"}, {"measurement": "Brain Cmin", "setting": "[17]; [20]", "result": 0.014, "unit": "ng/mg"}, {"measurement": "Tmax", "setting": "[18]", "result": 15, "unit": "min"}]}]}
